Laboratory results: BindingDB's records for doi:10.1016/s0960-894x(03)00205-1 (Abbott Laboratories, 2003)

Assay: Potassium channel opening activity in vitro using LtK cells transfected with Kir6.2/SUR2B exon 17
In the case of `O=C(Nc1c(C(O)(C(F)(F)F)C(F)(F)F)ccc2ccccc12)c1cccs1` [Thiophene-2-carboxylic acid [2-(2,2,2-trifluoro-1-hydroxy-1-trifluoromethyl-ethyl)-naphthalen-1-yl]-amide], the EC50 is reported as 12 nM.
`O=C(Nc1c(C(O)(C(F)(F)F)C(F)(F)F)ccc2ccccc12)c1cccc(Cl)c1Cl` [2,3-Dichloro-N-[2-(2,2,2-trifluoro-1-hydroxy-1-trifluoromethyl-ethyl)-naphthalen-1-yl]-benzamide] gave an EC50 of over 10000 nM.
Work on `O=C(Nc1c(C(O)(C(F)(F)F)C(F)(F)F)ccc2ccccc12)c1cc2ccccc2s1` [Benzo[b]thiophene-2-carboxylic acid [2-(2,2,2-trifluoro-1-hydroxy-1-trifluoromethyl-ethyl)-naphthalen-1-yl]-amide] yielded an EC50 of over 10000 nM.
Compound `N#Cc1cccc(C(=O)Nc2c(C(O)(C(F)(F)F)C(F)(F)F)ccc3ccccc23)c1` [3-Cyano-N-[2-(2,2,2-trifluoro-1-hydroxy-1-trifluoromethyl-ethyl)-naphthalen-1-yl]-benzamide] has an EC50 of 12 nM.
`CC(=O)Nc1c(C(O)(C(F)(F)F)C(F)(F)F)ccc2cc(O)ccc12` [N-[6-Hydroxy-2-(2,2,2-trifluoro-1-hydroxy-1-trifluoromethyl-ethyl)-naphthalen-1-yl]-acetamide] showed an EC50 of 2220 nM.
Work on `O=C(Nc1c(C(O)(C(F)(F)F)C(F)(F)F)ccc2ccccc12)c1ccc(Br)cc1` [4-Bromo-N-[2-(2,2,2-trifluoro-1-hydroxy-1-trifluoromethyl-ethyl)-naphthalen-1-yl]-benzamide] yielded an EC50 of 47 nM.
Work on `Cc1ccccc1C(=O)Nc1c(C(O)(C(F)(F)F)C(F)(F)F)ccc2ccccc12` [2-Methyl-N-[2-(2,2,2-trifluoro-1-hydroxy-1-trifluoromethyl-ethyl)-naphthalen-1-yl]-benzamide] yielded an EC50 of 5550 nM.
Compound `O=C(Nc1c(C(O)(C(F)(F)F)C(F)(F)F)ccc2ccccc12)c1ccc(OC(F)(F)F)cc1` [N-[2-(2,2,2-Trifluoro-1-hydroxy-1-trifluoromethyl-ethyl)-naphthalen-1-yl]-4-trifluoromethoxy-benzamide] has an EC50 of over 10000 nM.
`CC(=O)Nc1c(C(O)(C(F)(F)F)C(F)(F)F)ccc2ccccc12` [N-[2-(2,2,2-Trifluoro-1-hydroxy-1-trifluoromethyl-ethyl)-naphthalen-1-yl]-acetamide] gave an EC50 of 18 nM.
For `O=C(Nc1c(C(O)(C(F)(F)F)C(F)(F)F)ccc2ccccc12)c1cccc([N+](=O)[O-])c1` [3-Nitro-N-[2-(2,2,2-trifluoro-1-hydroxy-1-trifluoromethyl-ethyl)-naphthalen-1-yl]-benzamide], the EC50 was 117 nM.
For `O=C(Nc1c(C(O)(C(F)(F)F)C(F)(F)F)ccc2ccccc12)c1ccccc1Cl` [2-Chloro-N-[2-(2,2,2-trifluoro-1-hydroxy-1-trifluoromethyl-ethyl)-naphthalen-1-yl]-benzamide], the EC50 was 2040 nM.
`O=C(Nc1c(C(O)(C(F)(F)F)C(F)(F)F)ccc2ccccc12)c1cnc2ccccc2n1` [Quinoxaline-2-carboxylic acid [2-(2,2,2-trifluoro-1-hydroxy-1-trifluoromethyl-ethyl)-naphthalen-1-yl]-amide] showed an EC50 of 317 nM.
Work on `O=C(Nc1c(C(O)(C(F)(F)F)C(F)(F)F)ccc2ccccc12)c1ccc(Cl)cc1` [4-Chloro-N-[2-(2,2,2-trifluoro-1-hydroxy-1-trifluoromethyl-ethyl)-naphthalen-1-yl]-benzamide] yielded an EC50 of 570 nM.
For `O=C(Nc1c(C(O)(C(F)(F)F)C(F)(F)F)ccc2ccccc12)c1ccc(I)cc1` [4-Iodo-N-[2-(2,2,2-trifluoro-1-hydroxy-1-trifluoromethyl-ethyl)-naphthalen-1-yl]-benzamide], the EC50 was 154 nM.
Work on `O=C(Nc1c(C(O)(C(F)(F)F)C(F)(F)F)ccc2ccccc12)c1cccc(Br)c1` [3-Bromo-N-[2-(2,2,2-trifluoro-1-hydroxy-1-trifluoromethyl-ethyl)-naphthalen-1-yl]-benzamide] yielded an EC50 of 80 nM.
In the case of `O=C(Nc1c(C(O)(C(F)(F)F)C(F)(F)F)ccc2ccccc12)c1cccc(Cl)c1` [3-Chloro-N-[2-(2,2,2-trifluoro-1-hydroxy-1-trifluoromethyl-ethyl)-naphthalen-1-yl]-benzamide], the EC50 is reported as 98 nM.
`O=C(Nc1c(C(O)(C(F)(F)F)C(F)(F)F)ccc2ccccc12)c1cnco1` [Oxazole-5-carboxylic acid [2-(2,2,2-trifluoro-1-hydroxy-1-trifluoromethyl-ethyl)-naphthalen-1-yl]-amide] showed an EC50 of 24 nM.
In the case of `O=C(Nc1c(C(O)(C(F)(F)F)C(F)(F)F)ccc2ccccc12)c1ccco1` [Furan-2-carboxylic acid [2-(2,2,2-trifluoro-1-hydroxy-1-trifluoromethyl-ethyl)-naphthalen-1-yl]-amide], the EC50 is reported as 9 nM.
In the case of `COc1cccc(C(=O)Nc2c(C(O)(C(F)(F)F)C(F)(F)F)ccc3ccccc23)c1` [3-Methoxy-N-[2-(2,2,2-trifluoro-1-hydroxy-1-trifluoromethyl-ethyl)-naphthalen-1-yl]-benzamide], the EC50 is reported as 185 nM.
Work on `CCCC(=O)Nc1c(C(O)(C(F)(F)F)C(F)(F)F)ccc2ccccc12` [N-[2-(2,2,2-Trifluoro-1-hydroxy-1-trifluoromethyl-ethyl)-naphthalen-1-yl]-butyramide] yielded an EC50 of 131 nM.
`O=C(Nc1ccc(Cl)cc1)Nc1c(C(O)(C(F)(F)F)C(F)(F)F)ccc2ccccc12` [1-(4-Chloro-phenyl)-3-[2-(2,2,2-trifluoro-1-hydroxy-1-trifluoromethyl-ethyl)-naphthalen-1-yl]-urea] gave an EC50 of 276 nM.
Compound `CC(=O)Nc1c(C(O)(C(F)(F)F)C(F)(F)F)ccc2c(O)cccc12` [N-[5-Hydroxy-2-(2,2,2-trifluoro-1-hydroxy-1-trifluoromethyl-ethyl)-naphthalen-1-yl]-acetamide] has an EC50 of 137 nM.
`O=C(Nc1c(C(O)(C(F)(F)F)C(F)(F)F)ccc2ccccc12)c1ccc(C(F)(F)F)cc1` [N-[2-(2,2,2-Trifluoro-1-hydroxy-1-trifluoromethyl-ethyl)-naphthalen-1-yl]-4-trifluoromethyl-benzamide] gave an EC50 of 160 nM.
With `O=C(Nc1c(C(O)(C(F)(F)F)C(F)(F)F)ccc2ccccc12)c1cccc(C(F)(F)F)c1` [N-[2-(2,2,2-Trifluoro-1-hydroxy-1-trifluoromethyl-ethyl)-naphthalen-1-yl]-3-trifluoromethyl-benzamide] the EC50 was 84 nM.
Compound `O=C(Nc1c(C(O)(C(F)(F)F)C(F)(F)F)ccc2ccccc12)c1cc(Cl)cc(Cl)c1` [3,5-Dichloro-N-[2-(2,2,2-trifluoro-1-hydroxy-1-trifluoromethyl-ethyl)-naphthalen-1-yl]-benzamide] has an EC50 of 306 nM.
`CC(=O)Nc1c(C(O)(C(F)(F)F)C(F)(F)F)cc(Br)c2ccccc12` [N-[4-Bromo-2-(2,2,2-trifluoro-1-hydroxy-1-trifluoromethyl-ethyl)-naphthalen-1-yl]-acetamide] showed an EC50 of 5310 nM.
`O=C(CC1CCCC1)Nc1c(C(O)(C(F)(F)F)C(F)(F)F)ccc2ccccc12` [2-Cyclopentyl-N-[2-(2,2,2-trifluoro-1-hydroxy-1-trifluoromethyl-ethyl)-naphthalen-1-yl]-acetamide] showed an EC50 of 81 nM.
Work on `CCC(CC)C(=O)Nc1c(C(O)(C(F)(F)F)C(F)(F)F)ccc2ccccc12` [2-Ethyl-N-[2-(2,2,2-trifluoro-1-hydroxy-1-trifluoromethyl-ethyl)-naphthalen-1-yl]-butyramide] yielded an EC50 of 4340 nM.
`CC(C)=CC(=O)Nc1c(C(O)(C(F)(F)F)C(F)(F)F)ccc2ccccc12` [3-Methyl-but-2-enoic acid [2-(2,2,2-trifluoro-1-hydroxy-1-trifluoromethyl-ethyl)-naphthalen-1-yl]-amide] gave an EC50 of 46 nM.
With `O=C(Nc1c(C(O)(C(F)(F)F)C(F)(F)F)ccc2ccccc12)c1ccc(-c2ccccc2)cc1` [Biphenyl-4-carboxylic acid [2-(2,2,2-trifluoro-1-hydroxy-1-trifluoromethyl-ethyl)-naphthalen-1-yl]-amide] the EC50 was over 10000 nM.
In the case of `O=C(Nc1c(C(O)(C(F)(F)F)C(F)(F)F)ccc2ccccc12)c1ccc(Cl)c(Cl)c1` [3,4-Dichloro-N-[2-(2,2,2-trifluoro-1-hydroxy-1-trifluoromethyl-ethyl)-naphthalen-1-yl]-benzamide], the EC50 is reported as 194 nM.
`O=C(Nc1c(C(O)(C(F)(F)F)C(F)(F)F)ccc2ccccc12)C1CC1` [Cyclopropanecarboxylic acid [2-(2,2,2-trifluoro-1-hydroxy-1-trifluoromethyl-ethyl)-naphthalen-1-yl]-amide] showed an EC50 of 751 nM.
For `O=C(Nc1c(C(O)(C(F)(F)F)C(F)(F)F)ccc2ccccc12)c1ccc(F)cc1` [4-Fluoro-N-[2-(2,2,2-trifluoro-1-hydroxy-1-trifluoromethyl-ethyl)-naphthalen-1-yl]-benzamide], the EC50 was 70 nM.
With `COc1ccc(C(=O)Nc2c(C(O)(C(F)(F)F)C(F)(F)F)ccc3ccccc23)cc1` [4-Methoxy-N-[2-(2,2,2-trifluoro-1-hydroxy-1-trifluoromethyl-ethyl)-naphthalen-1-yl]-benzamide] the EC50 was 417 nM.
In the case of `O=C(NCCCCCCCl)Nc1c(C(O)(C(F)(F)F)C(F)(F)F)ccc2ccccc12` [1-(6-Chloro-hexyl)-3-[2-(2,2,2-trifluoro-1-hydroxy-1-trifluoromethyl-ethyl)-naphthalen-1-yl]-urea], the EC50 is reported as 4840 nM.
`CCC(C)C(=O)Nc1c(C(O)(C(F)(F)F)C(F)(F)F)ccc2ccccc12` (stereo not given) [2-Methyl-N-[2-(2,2,2-trifluoro-1-hydroxy-1-trifluoromethyl-ethyl)-naphthalen-1-yl]-butyramide] showed an EC50 of 177000 nM.
With `CCC(=O)Nc1c(C(O)(C(F)(F)F)C(F)(F)F)ccc2ccccc12` [N-[2-(2,2,2-Trifluoro-1-hydroxy-1-trifluoromethyl-ethyl)-naphthalen-1-yl]-propionamide] the EC50 was 15 nM.
With `CCCC(C)C(=O)Nc1c(C(O)(C(F)(F)F)C(F)(F)F)ccc2ccccc12` (stereo not given) [2-Methyl-pentanoic acid [2-(2,2,2-trifluoro-1-hydroxy-1-trifluoromethyl-ethyl)-naphthalen-1-yl]-amide] the EC50 was over 10000 nM.
Work on `O=C(Nc1c(C(O)(C(F)(F)F)C(F)(F)F)ccc2ccccc12)C1CCCC1` [Cyclopentanecarboxylic acid [2-(2,2,2-trifluoro-1-hydroxy-1-trifluoromethyl-ethyl)-naphthalen-1-yl]-amide] yielded an EC50 of 495 nM.
`O=C(Nc1c(C(O)(C(F)(F)F)C(F)(F)F)ccc2ccccc12)c1cccnc1` [N-[2-(2,2,2-Trifluoro-1-hydroxy-1-trifluoromethyl-ethyl)-naphthalen-1-yl]-nicotinamide] gave an EC50 of 60 nM.
